# “Also recorded” adds a separate entry of the source.
# System: angiogenesis
# Assay: Peritoneal implantation of Y-pore bioceramic implants in mice for 15 days, wound tissue and angiogenesis patterns
# Conditions: for tissue response in pores: mice
# [1] = DCPD implant treated with VEGF at the blind end of the closed pore
# From the text: In order to produce model implants for the investigation of spatially localized release of both organic (VEGF), a Y shaped hemi-cylindrical pore channel was designed in the x-y plane of DCPD cuboids with dimensions 8 mm×8 mm×3 mm. The bioceramic endoprosthesis was made in two mirror image halves 50, 52 that keyed into one another to form a Y shaped pore 51a, 51b closed at one of the branched ends (see FIGS. 2A-2C). […] In the experiments, mouse VEGF solution was deposited at the end of the closed pore.
# Wound tissue and angiogenesis patterns were examined for the implanted bioceramic endoprosthesis after peritoneal implantation of the bioceramic endoprosthesis in mice for 15 days.
# For experimental analysis, VEGF-impregnated bioceramic materials were prepared by passive adsorption of 200 ng or 2 μg final amount of mouse VEGF (R&D, Cedarlane Laboratories Ltd., Canada) diluted in a 5 μl volume of Hank's balanced salt solution (HBSS). Adsorption of VEGF was performed on each half of the bioceramic endoprosthesis (see FIGS. 2A-2D) at the closed end (3) of the Y-shape pore. Specimens were air-dried under a sterile laminar flow hood. Prior to VEGF impregnation, the bioceramic materials were sterilized by soaking in 70% ethanol, followed by a HEPES-NaCl buffered solution rinse, HBSS (×3), and then air-dried. Control material specimens were also impregnated with HBSS without VEGF. Higher concentrations of VEGF (400 μg/ml) were also investigated.
substance,measurement,setting,value
vascular endothelial growth factor [VEGF],"microvessel formation (microscopic observation, FIG. 3A)",[1],microvessel formation in the tissue only in the closed pore ends
same,"tissue in-growth (photographs, FIG. 3A)",[1],well formed vascular tissue extended from the main pore opening to closed pore end
same,tissue response in pores,"DCPD implant, 200 ng VEGF deposited in closed pore ends, 15 days",vascular tissue throughout the pore channels; also recorded: Vascularised tissue was found inside the main open and closed pore channels
same,tissue response in pores,"DCPD implant, 2 μg VEGF deposited in pore ends, 15 days",vascular tissue throughout the pore channels
same,angiogenic effect compared with untreated DCPD control (quantitative measurements),"DCPD implant, 15 days",significantly enhanced angiogenic effect
same,tissue response in pores,"HA implants containing VEGF, 15 days",very little tissue ingrowth
same,vascularization pattern in pores,"HA implants, 2 μg VEGF deposited in closed pore ends, 15 days implantation",mostly filled with clear connective tissue
same,length of pore into which blood vessels extended,"factor deposited at closed pore end of model implant, peritoneal implantation 15 days, factor-free controls 2 mm",7 mm
